Source: patent US10202404B2, “Polycyclic pyridone derivative having integrase inhibitory activity” (Shionogi & Co., Ltd., priority 2014, dated 2019)

system: HIV; assay: Anti-HIV activity (MT-4 cells, MTT); type: cell-based; conditions: 50% HIV inhibition concentration; MT-4 cells infected with HIV, incubated 4 days, MTT readout
Protocol: Previously, a series of two-fold dilution on test samples were carried out in a 96-well plate (50 μL/well). Two plates were made for measuring anti-HIV activity and measuring cytotoxicity. For each agent, measurement in duplicate was carried out. An MT-4 cell suspension of 2.5×10^5/mL was dispensed at 100 μL/well onto the 96-well plate containing the test samples. An HIV virus solution was dispensed at 50 μL/well onto the 96-well plate containing the test samples and the cell. To the plate for measuring cytotoxicity, a culture solution was dispensed at 50 μL/well. It was mixed by a plate mixer, and then incubated in a CO2 incubator for 4 days. […] Thirty microliters of a MTT (3-(4,5-dimethylthiazol-2-yl)-2,5-diphenyltetrazolium bromide) solution was dispensed to each well.
A reaction was allowed to occur in a CO2 incubator for an hour. From each well, 150 μL of the supernatant was removed such that cells are not sucked. One-hundred and fifty microliters of a cell lysis solution was added thereto, and then it was mixed well by a plate mixer until the whole cells are lysed. The mixed 96-well plates were measured by a microplate reader at two wavelengths, 560 nm/690 nm. Based on the following calculation formula, 50% HIV inhibition concentration (EC50) was calculated. EC50=10Z Z=(50%−Low %)/(High %−Low %)×{log(High conc.)−log(Low conc.)}+log(Low conc.) Based on the following calculation formula, 50% cytotoxic concentration (CC50) was calculated. CC50=10Z Z=(50%−Low %)/(High %−Low %)×{log(High conc.)−log(Low conc.)}+log(Low conc.) Based on the following calculation formula, selectivity index (ST) was calculated. SI=CC50/EC50 (Result)

Compound	EC50
C[C@@H]1CCO[C@H]2Cn3cc(-c4cnc(Cc5ccc(F)cc5F)s4)c(=O)c(O)c3C(=O)N12 [Compound A-40]	11 nM
C[C@@H]1CCO[C@H]2Cn3cc(-c4cn(Cc5ccc(F)cc5F)cn4)c(=O)c(O)c3C(=O)N12 [Compound A-49]	10 nM
C[C@@H]1CCO[C@H]2Cn3cc(-c4nnc(Oc5ccc(F)cc5F)s4)c(=O)c(O)c3C(=O)N12 [Compound A-51]	6.8 nM
C[C@@H]1CCO[C@H]2Cn3cc(-c4nnc(Cc5ccc(F)cc5F)[nH]4)c(=O)c(O)c3C(=O)N12 [Compound A-52]	18 nM

same assay, conditions: Human immunodeficiency virus 1, MT4, 96 h; 50% HIV inhibition concentration; MT-4 cells infected with HIV, incubated 4 days, MTT readout

Compound	EC50
C[C@@H]1CCO[C@H]2Cn3cc(-c4ncc(Cc5cccc(Cl)c5F)s4)c(=O)c(O)c3C(=O)N12 [Compound A-1]	7.8 nM
C[C@H]1CO[C@@H]2Cn3cc(-c4ncc(Cc5cccc(Cl)c5F)s4)c(=O)c(O)c3C(=O)N12 [Compound A-2]	2.5 nM
C[C@@H]1CO[C@H]2Cn3cc(-c4ncc(Cc5cccc(Cl)c5F)s4)c(=O)c(O)c3C(=O)N12 [Compound A-3]	3.7 nM
C[C@@H]1CCN2C(=O)c3c(O)c(=O)c(-c4ncc(Cc5cccc(Cl)c5F)s4)cn3C[C@@H]2O1 [Compound A-5]	8 nM
C[C@H]1CO[C@@H]2Cn3cc(-c4ncc(Cc5ccc(F)cc5F)s4)c(=O)c(O)c3C(=O)N12 [Compound A-6]	1.9 nM
C[C@@H]1CO[C@H]2Cn3cc(-c4ncc(Cc5ccc(F)cc5F)s4)c(=O)c(O)c3C(=O)N12 [Compound A-7]	6.5 nM
C[C@@H]1CO[C@H]2Cn3cc(-c4ncc(Cc5ccc(F)cc5F)s4)c(=O)c(O)c3C(=O)N2C1 [Compound A-8]	3.5 nM
C[C@@H]1CO[C@H]2Cn3cc(-c4ncc(Cc5cccc(Cl)c5F)s4)c(=O)c(O)c3C(=O)N2C1 [Compound A-9]	7.1 nM
C[C@H]1CCO[C@@H]2Cn3cc(-c4ncc(Cc5ccc(F)cc5F)s4)c(=O)c(O)c3C(=O)N12 [Compound A-10]	4.4 nM
C[C@H]1CCO[C@@H]2Cn3cc(-c4ncc(Cc5cccc(Cl)c5F)s4)c(=O)c(O)c3C(=O)N12 [Compound A-11]	8.8 nM
C[C@@H]1CCO[C@H]2Cn3cc(-c4ncc(Cc5c(F)cc(F)cc5F)s4)c(=O)c(O)c3C(=O)N12 [Compound A-12]	4.9 nM
C[C@@H]1CCO[C@@H]2Cn3cc(-c4ncc(Cc5ccc(F)cc5F)s4)c(=O)c(O)c3C(=O)N12 [Compound A-13]	6 nM
C[C@H]1CO[C@@H]2Cn3cc(-c4ncc(Cc5c(F)cc(F)cc5F)s4)c(=O)c(O)c3C(=O)N12 [Compound A-14]	1.2 nM
C[C@H]1CO[C@@H]2Cn3cc(-c4nnc(Cc5ccc(F)cc5F)s4)c(=O)c(O)c3C(=O)N12 [Compound A-15]	1.1 nM
C[C@@H]1CCN2C(=O)c3c(O)c(=O)c(-c4nnc(Cc5ccc(F)cc5F)s4)cn3C[C@@H]2O1 [Compound A-16]	2.1 nM
C[C@@H]1CCO[C@H]2Cn3cc(-c4nnc(Cc5cccc(Cl)c5F)s4)c(=O)c(O)c3C(=O)N12 [Compound A-17]	2.3 nM
C[C@H]1CO[C@@H]2Cn3cc(-c4nnc(Cc5cccc(Cl)c5F)s4)c(=O)c(O)c3C(=O)N12 [Compound A-18]	2.3 nM
C[C@@H]1CO[C@H]2Cn3cc(-c4nnc(Cc5ccc(F)cc5F)s4)c(=O)c(O)c3C(=O)N12 [Compound A-19]	3.1 nM
C[C@@H]1CO[C@H]2Cn3cc(-c4nnc(Cc5cccc(Cl)c5F)s4)c(=O)c(O)c3C(=O)N12 [Compound A-20]	3 nM
C[C@@H]1CO[C@H]2Cn3cc(-c4nnc(Cc5ccc(F)cc5F)s4)c(=O)c(O)c3C(=O)N2C1 [Compound A-21]	1 nM
C[C@@H]1CO[C@H]2Cn3cc(-c4nnc(Cc5cccc(Cl)c5F)s4)c(=O)c(O)c3C(=O)N2C1 [Compound A-22]	1.7 nM
C[C@@H]1CCO[C@H]2Cn3cc(-c4nnc(Cc5c(F)cc(F)cc5F)s4)c(=O)c(O)c3C(=O)N12 [Compound A-23]	2.6 nM
C[C@@H]1CCO[C@H]2Cn3cc(-c4nnc(Cc5cc(F)c(F)cc5F)s4)c(=O)c(O)c3C(=O)N12 [Compound A-24]	4.2 nM
C[C@@H]1CCO[C@H]2Cn3cc(-c4nnc(Cc5c(F)ccc(Cl)c5F)s4)c(=O)c(O)c3C(=O)N12 [Compound A-25]	3.4 nM
C[C@@H]1CCO[C@H]2Cn3cc(-c4nnc(Cc5ccc(F)c(Cl)c5F)s4)c(=O)c(O)c3C(=O)N12 [Compound A-26]	3.8 nM
C[C@@H]1CCO[C@H]2Cn3cc(-c4nnc(Cc5c(Cl)ccc(Cl)c5F)s4)c(=O)c(O)c3C(=O)N12 [Compound A-27]	3.5 nM
C[C@H]1CCO[C@@H]2Cn3cc(-c4nnc(Cc5cccc(Cl)c5F)s4)c(=O)c(O)c3C(=O)N12 [Compound A-28]	3.3 nM

Compound	EC50
C[C@@H]1CCO[C@H]2Cn3cc(-c4nnc(Cc5ccc(F)c(F)c5F)s4)c(=O)c(O)c3C(=O)N12 [Compound A-31]	2.3 nM
COc1c(F)ccc(Cc2nnc(-c3cn4c(c(O)c3=O)C(=O)N3[C@H](C)CCO[C@H]3C4)s2)c1F [Compound A-32]	12 nM
C[C@@H]1CCO[C@H]2Cn3cc(-c4nnc(Cc5ccc(F)c(Cl)c5)s4)c(=O)c(O)c3C(=O)N12 [Compound A-33]	2.5 nM
C[C@@H]1CCO[C@H]2Cn3cc(-c4nnc(Cc5cc(C(F)(F)F)cc(Cl)c5F)s4)c(=O)c(O)c3C(=O)N12 [Compound A-34]	13 nM
C[C@H]1CO[C@@H]2Cn3cc(-c4cnc(Cc5ccc(F)cc5F)s4)c(=O)c(O)c3C(=O)N12 [Compound A-42]	10 nM
C[C@@H]1CCO[C@H]2Cn3cc(-c4nnc(C(F)(F)c5cccc(Cl)c5F)s4)c(=O)c(O)c3C(=O)N12 [Compound A-43]	3.6 nM
C[C@H]1CO[C@@H]2Cn3cc(-c4cn(Cc5ccc(F)cc5F)cn4)c(=O)c(O)c3C(=O)N12 [Compound A-44]	5.1 nM
Cc1nc(-c2cn3c(c(O)c2=O)C(=O)N2[C@H](C)CCO[C@H]2C3)sc1Cc1ccc(F)cc1F [Compound A-45]	4.1 nM
Cc1nc(-c2cn3c(c(O)c2=O)C(=O)N2[C@@H](C)CO[C@@H]2C3)sc1Cc1cccc(Cl)c1F [Compound A-46]	3.9 nM
Cc1nc(-c2cn3c(c(O)c2=O)C(=O)N2[C@@H](C)CO[C@@H]2C3)sc1Cc1ccc(F)cc1F [Compound A-47]	3.4 nM
C[C@@H]1CCO[C@H]2Cn3cc(-c4nc(C(F)(F)F)c(Cc5ccc(F)cc5F)s4)c(=O)c(O)c3C(=O)N12 [Compound A-48]	14 nM
C[C@@H]1CCO[C@H]2Cn3cc(-c4cn(Cc5cccc(Cl)c5F)cn4)c(=O)c(O)c3C(=O)N12 [Compound A-50]	12 nM
O=C1c2c(O)c(=O)c(-c3nnc(Cc4cccc(Cl)c4F)s3)cn2C[C@@H]2N1C[C@H]1CCCN12 [Compound A-54]	1.6 nM
O=C1c2c(O)c(=O)c(-c3nnc(Cc4ccc(F)cc4F)s3)cn2C[C@@H]2N1C[C@H]1CCCN12 [Compound A-55]	1.7 nM
C[C@H]1CCN(C2CC2)[C@@H]2Cn3cc(-c4nnc(Cc5cccc(Cl)c5F)s4)c(=O)c(O)c3C(=O)N12 [Compound A-56]	4 nM
C[C@H]1N2C(=O)c3c(O)c(=O)c(-c4nnc(Cc5ccc(F)cc5F)s4)cn3C[C@@H]2OCC12CC2 [Compound A-57]	1.7 nM
O=C1c2c(O)c(=O)c(-c3nnc(Cc4ccc(F)cc4F)s3)cn2CC2OCC3(COC3)CN12 (stereo not drawn) [Compound A-58]	10 nM
Cc1nc(-c2cn3c(c(O)c2=O)C(=O)N2[C@H](C)CCO[C@H]2C3)cn1Cc1ccc(F)cc1F [Compound A-59]	9.5 nM
C[C@H]1CN(C2CC2)[C@@H]2Cn3cc(-c4nnc(Cc5ccc(F)cc5F)s4)c(=O)c(O)c3C(=O)N12 [Compound A-60]	2 nM
COCCN1CC[C@H](C)N2C(=O)c3c(O)c(=O)c(-c4nnc(Cc5ccc(F)cc5F)s4)cn3C[C@@H]12 [Compound A-61]	4.1 nM
C[C@H]1[C@H]2CCCN2[C@@H]2Cn3cc(-c4nnc(Cc5ccc(F)cc5F)s4)c(=O)c(O)c3C(=O)N12 [Compound A-62]	1.6 nM
O=C1c2c(O)c(=O)c(-c3nnc(Cc4ccc(F)cc4F)s3)cn2C[C@@H]2O[C@H]3CCC[C@H]3N12 [Compound A-63]	2 nM
C[C@@H]1CCO[C@H]2Cn3cc(-c4cn(Cc5ccc(F)cc5F)cn4)c(=O)c(O)c3C(=O)N12 [Compound A-64]	1.6 nM
O=C1c2c(O)c(=O)c(-c3nnc(Cc4ccc(F)cc4F)s3)cn2C[C@H]2O[C@@H]3CC[C@@H](C3)N12 [Compound A-65]	4.2 nM
O=C1c2c(O)c(=O)c(-c3nnc(Cc4ccc(F)cc4F)s3)cn2C[C@@H]2O[C@H]3CC[C@H](C3)N12 [Compound A-66]	7.2 nM
COC[C@@H]1CCO[C@H]2Cn3cc(-c4nnc(Cc5ccc(F)cc5F)s4)c(=O)c(O)c3C(=O)N12 [Compound A-67]	4.2 nM
